IC50 data for 1 compound are collected here from ChEMBL document CHEMBL5726007, “Therapeutic compounds and uses thereof” (2018).

Each structure is given as a SMILES string.

This assay has as its target T1, Bromodomain-containing protein 9 (Homo sapiens, UniProt Q9H8M2).
T1 sequence (Q9H8M2 whole entry): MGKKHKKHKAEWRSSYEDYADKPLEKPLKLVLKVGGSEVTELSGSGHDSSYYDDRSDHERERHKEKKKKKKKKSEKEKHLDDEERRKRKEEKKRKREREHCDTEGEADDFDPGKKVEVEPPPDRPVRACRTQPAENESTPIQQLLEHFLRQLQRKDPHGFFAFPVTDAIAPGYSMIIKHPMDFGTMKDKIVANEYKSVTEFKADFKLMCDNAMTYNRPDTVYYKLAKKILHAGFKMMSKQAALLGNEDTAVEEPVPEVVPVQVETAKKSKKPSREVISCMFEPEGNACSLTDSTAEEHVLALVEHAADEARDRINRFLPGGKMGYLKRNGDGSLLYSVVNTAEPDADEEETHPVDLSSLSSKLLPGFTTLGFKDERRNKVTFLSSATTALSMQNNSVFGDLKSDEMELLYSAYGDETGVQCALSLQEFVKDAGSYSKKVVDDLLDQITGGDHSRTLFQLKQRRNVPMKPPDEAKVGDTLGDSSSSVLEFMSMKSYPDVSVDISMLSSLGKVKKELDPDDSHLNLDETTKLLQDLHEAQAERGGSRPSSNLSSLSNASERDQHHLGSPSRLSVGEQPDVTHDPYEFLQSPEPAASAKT
In words: After 20 minutes incubation at room temperature AlphaLisa Streptavidin Acceptor Beads (Perkin-AL125C) and AlphaLisa Nickel donor beads (Perkin AS 10 ID) were added to a final concentration of 15 ug/mL each.

`CC(C)n1cc(-c2ccc(C(C)(C)O)cc2)c2cc[nH]c2c1=O` registered an IC50 of 4.1 µM.
